The record followed here is patent publication US7842808B2, “Anti-migraine spirocycles” (Bristol-Myers Squibb Company, priority 2002, dated 2010).

As usually defined, the IC50 is the concentration at which inhibition is half-maximal. By Kb is commonly meant the affinity of an antagonist, worked out from how it opposes an agonist. As usually defined, the EC50 is the concentration that produces a half-maximal response.

Test [1] deals with T1, human CGRP receptor (SK-N-MC cells) (Homo sapiens, UniProt O60894+Q16602).
T1 construct: SK-N-MC cells that endogenously express the human CGRP receptor; endogenous in cells; host or cells: SK-N-MC cells
Description: Cyclic AMP Assay, functional antagonism of CGRP-induced cyclic AMP formation. In kind it is cell-based. To be noted: SK-N-MC cells, 0.3 nM CGRP; read-out: cAMP Function IC50. The method, boiled down:
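SK-N-MC cells, which endogenously express human CGRP receptor, stimulated with 0.3 nM CGRP with or without compound for 30 min at room temperature. Cellular cAMP extracted by lysis and quantified by SPA radioimmunoassay; IC50 from inhibition of CGRP-induced cAMP.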

Test [2] has as its target T2, CGRP receptor (SK-N-MC cell membranes) (Homo sapiens, UniProt O60894+Q16602).
T2 construct: endogenous in cells; host or cells: SK-N-MC cells (membrane homogenate)
Kind of test: CGRP Binding Assay ([125I]-CGRP radioligand binding, SK-N-MC homogenate). The conditions noted are these: displacement of [125I]-CGRP, SK-N-MC homogenate; read-out: CGRP binding IC50. (Loss of bound radioactivity is the signal in a displacement assay; it reports binding, not function.)

The target of test [3] is T1, human CGRP receptor (SK-N-MC cells). Description: Schild analysis of CGRP stimulated cAMP production. To be noted: for Kb: Schild analysis, dissociation constant of the antagonist, read-out: Kb; for slope: Schild plot slope. In kind it is cell-based. As to the method: Functional Antagonism. Antagonism of the compounds of invention was determined by measuring the formation of cyclic AMP (adenosine 3′5′-cyclic monophosphate) in SK-N-MC cells that endogenously express the human CGRP receptor. CGRP receptor complex is coupled with Gs protein and CGRP binding to this complex leads to the cyclic AMP production via Gs—dependent activation of an adenylate cyclase (Juaneda C et al., TiPS, 2000; 21:432-438; incorporated by reference herein). Consequently, CGRP receptor antagonists inhibit CGRP-induced cyclic AMP formation in SK-N-MC cells (Doods H et al., Br J Pharmacol, 2000; 129(3):420-423); incorporated by reference herein). For cyclic AMP measurements SK-N-MC cells were incubated with 0.3 nM CGRP alone or in the presence of various concentrations of the compounds of invention for 30 min at room temperature. Compounds of invention were pre-incubated with SK-N-MC cells for 15 min before the addition of CGRP to allow receptor occupancy (Edvinsson et al., Eur J Pharmacol, 2001, 415:39-44; incorporated by reference herein). Cyclic AMP was extracted using the lysis reagent and its concentration was determined by radioimmunoassay using RPA559 cAMP SPA Direct Screening Assay Kit (Amersham Pharmacia Biotech). IC50 values were calculated using Excel fit.
Schild Analysis. Schild analysis can be used to characterize the nature of antagonism of the compounds of invention. The dose response of CGRP stimulated cAMP production was generated either with CGRP alone, or in the presence of various concentrations of compounds of invention. The antagonist dose is plotted as X against the dose ratio (defined as IC50 of agonist with the presence of the compounds divided by the IC50 of the agonist alone) minus 1 as Y. Linear regression was then performed with both X and Y axis log-transformed. […] Kb is the dissociation constant of the antagonist.
In general terms: Cyclic AMP is a second messenger, typically raised through Gs and lowered through Gi signalling.

Test [4] deals with human cerebral vessels (CGRP-induced dilation). Description: Ex Vivo Human Cerebral Artery Assay, reversal of CGRP-induced relaxation. To be noted: reversal of 1 nM hCGRP-induced relaxation, vessels pre-contracted with 10 mM KCl. The source says: Rationale and Overview. To provided direct evidence of the ability for novel compounds to reverse CGRP-induced dilation in human cerebral vessels, an ex vivo assay was design. Briefly, isolated vessel rings were mounted in a tissue bath where vessels were pre-contracted with potassium chloride (KCl) and fully dilated with hCGRP, then this relaxation was reversed by the cumulative addition of CGRP-receptor antagonists (complete details follow).
Tissue Samples. Autopsy samples of human arteries were obtained from vendors (ABS Inc. or NDRI). All vessels were transported on ice-cold HEPES buffer (composition in mM: NaCl 130, KCl 4, KH2PO4 1.2, MgSO4 1.2, CaCl2 1.8, Glucose 6, NaHCO3 4, HEPES 10, EDTA 0.025). Upon receipt, the vessels were placed in cold Kreb's buffer (composition in mM: NaCl 118.4, KCl 4.7, KH2PO4 1.2, MgSO4 1.2, CaCl2 1.8, Glucose 10.1, NaHCO3 25) saturated with carbogen (5% CO2 and 95% oxygen).
Isolated Tissue Baths. The vessels were cleaned of connective tissues and cut into cylindrical segments of 4-5 mm in length. The vessels were then mounted in tissue baths between two stainless steel hooks; one of which is fixed and the other of which was connected to a force displacement transducer. The vessel tension was continuously recorded using a data acquisition system (Powerlab, ADInstruments, Mountain View, Calif.) connected to the transducer. The tissue baths containing Krebs buffer and mounted vessels were temperature (37° C.) and pH (7.4) controlled with continuous bubbling of carbogen. The artery segments were allowed to equilibrate for about 30-45 min until a stable resting tone was achieved. Prior to the assay, vessels were primed (conditioned) with 100 mM KCl and subsequently washed. The vessels were pre-contracted with 10 mM KCl and fully dilated with 1 nM hCGRP. Concentration-response curves to CGRP-receptor antagonists were performed by the cumulative addition of drugs in half log units in fully dilated vessels. At each concentration, the effects of the drugs were expressed as % reversal of CGRP-induced relaxation in each vessel. The actual assay and data analysis were performed for each vessel individually, fitting the concentration-response data to a four parameter logistic function by non-linear regression analysis, to estimate the EC50 values.

T2 sequence (Q16602 23-461): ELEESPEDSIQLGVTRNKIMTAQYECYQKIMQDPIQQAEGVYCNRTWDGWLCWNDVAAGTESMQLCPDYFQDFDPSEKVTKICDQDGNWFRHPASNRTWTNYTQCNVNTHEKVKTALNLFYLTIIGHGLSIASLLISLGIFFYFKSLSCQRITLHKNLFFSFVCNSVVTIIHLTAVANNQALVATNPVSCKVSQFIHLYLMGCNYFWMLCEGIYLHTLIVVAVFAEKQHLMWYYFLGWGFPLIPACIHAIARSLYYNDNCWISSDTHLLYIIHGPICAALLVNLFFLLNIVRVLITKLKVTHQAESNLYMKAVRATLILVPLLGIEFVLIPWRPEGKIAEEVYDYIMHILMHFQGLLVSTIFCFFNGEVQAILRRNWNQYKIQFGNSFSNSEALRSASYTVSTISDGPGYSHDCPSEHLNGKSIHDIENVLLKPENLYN
T2 sequence (O60894 27-148): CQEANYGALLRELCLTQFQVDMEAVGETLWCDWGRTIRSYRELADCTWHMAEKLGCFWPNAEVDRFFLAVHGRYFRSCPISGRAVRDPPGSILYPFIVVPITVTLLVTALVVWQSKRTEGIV
T1 sequence (Q16602 23-461): as the sequence (Q16602 23-461) above
T1 sequence (O60894 27-148): as the sequence (O60894 27-148) above

Take `O=C(NC(Cc1ccc2[nH]ccc2c1)C(=O)N1CCC(N2CCCCC2)CC1)N1CCC(n2c(=O)[nH]c3ccccc32)CC1` (racemic) [Example 3, (±)-4-(2-Oxo-2,3-dihydro-benzoimidazol-1-yl)-piperidine-1-carboxylic acid[2-[1,4′]bipiperidinyl-1′-yl-1-(1H-indol-5-ylmethyl)-2-oxo-ethyl]-amide]: the IC50 in test [1] is 10 to 100 nM. Also, in test [2], the IC50 was 10 to 100 nM. Also, in test [3], the Kb stood at 55 nM and the slope was determined as 0.96. The EC50 in test [4] lay in the range of 10 to 100 nM.
On to `O=C(NC(Cc1ccc2[nH]ccc2c1)C(=O)N1CCC(N2CCCCC2)CC1)N1CCC(N2Cc3ccccc3NC2=O)CC1` (racemic) [Example 5, (±)-4-(2-Oxo-1,4-dihydro-2H-quinazolin-3-yl)-piperidine-1-carboxylic acid[2-[1,4′]bipiperidinyl-1′-yl-1-(1H-indol-5-ylmethyl)-2-oxo-ethyl]-amide], for which, in test [1], the IC50 is under 10 nM. The IC50 in test [2] was under 10 nM. Moreover, in test [3], the antagonist equilibrium constant (Kb) is 3 nM and the slope is recorded as 0.92.
Regarding `CCc1cc(CC(NC(=O)N2CCC(N3Cc4ccccc4NC3=O)CC2)C(=O)N2CCC(N3CCCCC3)CC2)cc2cn[nH]c12` (racemic) [Example 45, (±)-4-(2-Oxo-1,4-dihydro-2H-quinazolin-3-yl)-piperidine-1-carboxylic acid[2-[1,4′]bipiperidinyl-1′-yl-1-(7-ethyl-1H-indazol-5-ylmethyl)-2-oxo-ethyl]-amide], in test [2], the concentration for half-maximal inhibition (IC50) is under 10 nM. The compound further came in with a slope in test [3] of 1.4.
As for `Cc1cc(CC(CC(=O)N2CCC(N3Cc4ccccc4NC3=O)CC2)C(=O)N(C)C)cc2cn[nH]c12` (racemic) [Example 72, (±)-N,N-Dimethyl-2-(7-methyl-1H-indazol-5-ylmethyl)-4-oxo-4-[4-(2-oxo-1,4-dihydro-2H-quinazolin-3-yl)-piperidin-1-yl]-butyramide], the IC50 in test [1] and in test [2] was under 10 nM in each case. In addition, in test [4], the EC50 was under 10 nM.
Consider `Cc1cc(CC(CC(=O)N2CCC(N3Cc4ccccc4NC3=O)CC2)C(=O)N2CCC(C)CC2)cc2cn[nH]c12` (racemic) [Example 74, (±)-2-(7-Methyl-1H-indazol-5-ylmethyl)-1-(4-methyl-piperidin-1-yl)-4-[4-(2-oxo-1,4-dihydro-2H-quinazolin-3-yl)-piperidin-1-yl]-butane-1,4-dione], for which the IC50 in test [1] and in test [2] was under 10 nM each time. Also, the EC50 in test [4] was under 10 nM.
For `Cc1cc(CC(CC(=O)N2CCC3(CC2)OC(=O)Nc2ccccc23)C(=O)N(C)C)cc2cn[nH]c12` (racemic) [Example 76, (±)-N,N-Dimethyl-2-(7-methyl-1H-indazol-5-ylmethyl)-4-oxo-4-[1′,2′-dihydro-2′-oxospiro-[4H-3′,1-benzoxazine-4,4′-piperidinyl]-butyramide], the IC50 in test [1] and in test [2] was 10 to 100 nM in each case. The EC50 in test [4] is under 10 nM.
With `O=C1Nc2ccccc2C2(CCN(C(=O)C[C@H](Cc3csc4ccccc34)C(=O)N3CCC(N4CCCCC4)CC3)CC2)O1` [Example 65], the values for the IC50 in test [1] and in test [2] were 10 to 100 nM and under 10 nM, respectively. Besides, the EC50 in test [4] was in the range of 10 to 100 nM.
In the case of `O=C(C[C@H](Nc1ccc2[nH]ccc2c1)C(=O)N1CCC(N2CCCCC2)CC1)N1CCC(N2Cc3ccccc3NC2=O)CC1` [Example 86, (L)-1-[1,4′]Bipiperidinyl-1′-yl-2-(1H-indol-5-ylamino)-4-[4-(2-oxo-1,4-dihydro-2H-quinazolin-3-yl)-piperidin-1-yl]-butane-1,4-dione], the values for the IC50 in test [1] and in test [2] were 10 to 100 nM and 100 to 1000 nM, respectively. Further, the EC50 in test [4] was 100 to 1000 nM.
